Results reported in EPA's ToxValDB 9.5 (doi:10.2903/j.efsa.2006.78r).

Key:
Typhlodromus pyri = assay: LR50; higher = less toxic; settings: not reported; mortality
Rattus norvegicus = settings: oral, histopathology: nonneoplastic
Cucumis sativus = settings: chronic/long-term; other
Daphnia magna = settings: chronic/long-term; duration: 21 days
Apis mellifera = settings: acute; duration: 48 hours; oral; unspecified; mortality
[1] = acute, oral, unspecified, mortality

CCCOC(=O)NCCCN(C)C.Cl [Propamocarb hydrochloride]
LR50 (Typhlodromus pyri): > 360 g/ha
LD50 (Bird; [1]): > 1840 mg/kg-day
NOEC (Bird; reproductive): 105 mg/kg-day
LC50 (Bird; short-term, oral, feed, mortality): > 962 mg/kg-day
LC50 (Lepomis macrochirus; acute, duration: 96 hours, mortality): > 92 µg/mL
NOEC (Lepomis macrochirus; chronic/long-term, duration: 32 days): > 6.3 mg/L
LD50 [1]: > 1330 mg/kg-day
LEC (chronic/long-term): 104 mg/kg-day
LC50 (Tagia sp.; acute, duration: 14 days, mortality): > 660 mg/kg
NOEC (Tagia sp.; chronic/long-term, duration: 56 days, reproduction): 362 mg/kg
NOAEL (Rattus norvegicus; chronic, duration: 52 weeks, diet, F): 29 mg/kg-day
NOAEL (Rattus norvegicus; short-term, duration: 28 days, gavage): 100 mg/kg-day
NOEC (Cucumis sativus): 9180 g/ha
NOEC (Daphnia magna): 12.3 mg/L
LD50 (Apis mellifera): > 84 µg/piece
